Tests used:
Assay in all cases: absorbance of reduced form, protection from air oxidation, one-site fit
Format in all cases: binding
myoglobin = biological target: T1, myoglobin (Homo sapiens, UniProt P02144)
T1 construct: gene MB; commercial protein with heme
T1 sequence (P02144 2-154): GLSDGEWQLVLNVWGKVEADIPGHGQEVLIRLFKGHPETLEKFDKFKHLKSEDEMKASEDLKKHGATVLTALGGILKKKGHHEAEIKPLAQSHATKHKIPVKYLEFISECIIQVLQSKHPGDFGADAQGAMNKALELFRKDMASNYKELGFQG

hemoglobin = biological target: T2, hemoglobin (Homo sapiens, UniProt P68871+P69905)
T2 construct: gene HBA1; commercial lyophilized hemoglobin with heme
T2 sequence (P69905 2-142): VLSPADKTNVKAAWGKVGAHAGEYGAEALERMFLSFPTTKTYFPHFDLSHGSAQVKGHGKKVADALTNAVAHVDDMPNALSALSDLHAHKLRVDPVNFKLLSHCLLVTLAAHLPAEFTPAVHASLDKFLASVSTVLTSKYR
T2 sequence (P68871 2-147): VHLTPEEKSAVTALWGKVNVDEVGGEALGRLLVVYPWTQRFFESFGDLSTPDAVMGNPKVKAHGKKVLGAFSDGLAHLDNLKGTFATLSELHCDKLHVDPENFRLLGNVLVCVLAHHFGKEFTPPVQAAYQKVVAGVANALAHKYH

cytochrome c = biological target: T3, cytochrome c; settings: PBS, 2 mM NH4OAc, ambient, 5 days; apparent, for retaining ferrous heme
T3 construct: gene CYCS; commercial reduced cytochrome c with heme

CN(C)C(=N)NC(=N)N [metformin]
Kd (myoglobin): 570 µM | Kd (hemoglobin): 860 µM | Kd (cytochrome c): 1150 µM

— paper PMC6385989, “Metformin Affects Heme Function as a Possible Mechanism of Action” (G3: Genes|Genomes|Genetics, 2018)
